Legend:
Assay in all cases: radiometric filter-binding kinase assay, Kinase HotSpot
Details in all cases: compound 0.5 µM; ATP 10 µM
PHKG1 (human) = PHKG1 (human) (UniProt Q16816)
ROCK2 (human) = ROCK2 (human) (UniProt O75116)
CSNK1E (human) = CSNK1E (human) (UniProt P49674)
[1] = target: TYK2 JH1 catalytic (human) (UniProt P29597)
DCLK2 (human) = DCLK2 (human) (UniProt Q8N568)
INSRR (human) = INSRR (human) (UniProt P14616)
PIM1 (human) = PIM1 (human) (UniProt P11309)
DAPK1 (human) = DAPK1 (human) (UniProt P53355)
ERBB4 (human) = ERBB4 (human) (UniProt Q15303)
CLK2 (human) = CLK2 (human) (UniProt P49760)
KDR (human) = KDR (human) (UniProt P35968)
CDK7 CCNH MNAT1 (human) = CDK7 CCNH MNAT1 (human) (UniProt P50613+P51948+P51946)
DYRK4 (human) = DYRK4 (human) (UniProt Q9NR20)
CSNK1G3 (human) = CSNK1G3 (human) (UniProt Q9Y6M4)
TEC (human) = TEC (human) (UniProt P42680)
MAPK9 (human) = MAPK9 (human) (UniProt P45984)
WNK2 (human) = WNK2 (human) (UniProt Q9Y3S1)
Sequence of WNK2 (human) (Q9Y3S1 whole entry, looked up): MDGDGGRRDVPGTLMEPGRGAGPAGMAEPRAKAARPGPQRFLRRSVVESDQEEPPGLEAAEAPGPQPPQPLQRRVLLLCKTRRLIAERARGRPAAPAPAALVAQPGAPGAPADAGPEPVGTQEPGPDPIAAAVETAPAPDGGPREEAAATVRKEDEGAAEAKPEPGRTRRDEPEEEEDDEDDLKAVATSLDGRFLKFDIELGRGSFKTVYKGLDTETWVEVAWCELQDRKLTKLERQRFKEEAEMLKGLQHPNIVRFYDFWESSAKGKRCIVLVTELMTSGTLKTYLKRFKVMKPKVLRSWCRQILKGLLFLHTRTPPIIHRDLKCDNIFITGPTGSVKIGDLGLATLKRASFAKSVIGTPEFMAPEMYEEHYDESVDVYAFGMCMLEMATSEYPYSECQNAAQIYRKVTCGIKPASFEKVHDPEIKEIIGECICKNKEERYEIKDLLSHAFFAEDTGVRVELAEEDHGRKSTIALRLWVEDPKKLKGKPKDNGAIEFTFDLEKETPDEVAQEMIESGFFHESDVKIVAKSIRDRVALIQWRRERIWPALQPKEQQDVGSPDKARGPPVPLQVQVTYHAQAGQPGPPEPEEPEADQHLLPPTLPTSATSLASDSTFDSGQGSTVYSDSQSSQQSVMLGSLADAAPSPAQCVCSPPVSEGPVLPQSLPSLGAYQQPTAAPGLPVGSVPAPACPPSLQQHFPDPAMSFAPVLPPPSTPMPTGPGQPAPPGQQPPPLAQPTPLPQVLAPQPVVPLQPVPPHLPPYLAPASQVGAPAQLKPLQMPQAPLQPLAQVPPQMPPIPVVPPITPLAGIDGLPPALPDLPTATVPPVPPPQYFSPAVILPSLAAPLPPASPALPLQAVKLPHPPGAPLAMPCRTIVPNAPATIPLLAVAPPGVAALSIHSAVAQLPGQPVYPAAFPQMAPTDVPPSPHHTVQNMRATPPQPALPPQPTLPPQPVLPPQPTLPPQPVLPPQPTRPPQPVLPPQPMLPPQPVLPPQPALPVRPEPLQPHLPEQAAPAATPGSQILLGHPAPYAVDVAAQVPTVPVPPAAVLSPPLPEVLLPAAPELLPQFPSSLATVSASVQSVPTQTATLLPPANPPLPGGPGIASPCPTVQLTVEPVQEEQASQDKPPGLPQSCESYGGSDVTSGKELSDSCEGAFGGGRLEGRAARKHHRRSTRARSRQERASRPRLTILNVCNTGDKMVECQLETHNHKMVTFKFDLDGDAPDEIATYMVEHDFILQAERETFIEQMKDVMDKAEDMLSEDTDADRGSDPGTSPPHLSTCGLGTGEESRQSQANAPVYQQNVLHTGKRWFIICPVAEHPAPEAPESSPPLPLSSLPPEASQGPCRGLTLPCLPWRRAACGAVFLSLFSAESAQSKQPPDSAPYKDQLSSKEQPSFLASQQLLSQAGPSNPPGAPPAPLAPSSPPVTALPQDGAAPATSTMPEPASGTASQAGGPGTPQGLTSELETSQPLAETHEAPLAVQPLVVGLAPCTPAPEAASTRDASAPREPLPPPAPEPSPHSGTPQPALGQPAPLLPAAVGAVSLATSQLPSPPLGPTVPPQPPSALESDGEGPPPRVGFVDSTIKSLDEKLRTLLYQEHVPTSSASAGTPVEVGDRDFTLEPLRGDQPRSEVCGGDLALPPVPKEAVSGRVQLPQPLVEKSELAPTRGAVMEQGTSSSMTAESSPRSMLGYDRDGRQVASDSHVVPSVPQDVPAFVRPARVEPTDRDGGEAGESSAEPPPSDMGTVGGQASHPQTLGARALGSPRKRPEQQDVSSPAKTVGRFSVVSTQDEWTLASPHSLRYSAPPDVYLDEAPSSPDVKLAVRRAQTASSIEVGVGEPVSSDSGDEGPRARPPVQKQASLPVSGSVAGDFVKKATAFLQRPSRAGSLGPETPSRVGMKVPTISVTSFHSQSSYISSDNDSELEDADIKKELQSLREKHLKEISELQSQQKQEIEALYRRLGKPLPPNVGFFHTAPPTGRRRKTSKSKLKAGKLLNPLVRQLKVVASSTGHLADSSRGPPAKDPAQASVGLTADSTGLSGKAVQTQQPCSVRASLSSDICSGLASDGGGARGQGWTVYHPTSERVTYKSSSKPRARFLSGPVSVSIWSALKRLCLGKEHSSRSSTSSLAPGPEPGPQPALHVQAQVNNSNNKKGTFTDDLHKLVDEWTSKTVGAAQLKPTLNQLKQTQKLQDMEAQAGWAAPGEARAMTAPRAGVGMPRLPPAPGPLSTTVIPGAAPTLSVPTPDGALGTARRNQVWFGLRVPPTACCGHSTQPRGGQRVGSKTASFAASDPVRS

INSR (human) = INSR (human) (UniProt P06213)
RIPK2 (human) = RIPK2 (human) (UniProt O43353)
BLK (human) = BLK (human) (UniProt P51451)
MAP3K9 (human) = MAP3K9 (human) (UniProt P80192)
[2] = test system: MKNK1 (human), Q9BUB5 [T385D; 165-205 del]
AKT1 (human) = AKT1 (human) (UniProt P31749)
TSSK2 (human) = TSSK2 (human) (UniProt Q96PF2)
CDK4 CCND3 (human) = CDK4 CCND3 (human) (UniProt P30281+P11802)
Sequence of CDK4 CCND3 (human) (P11802 whole entry, looked up): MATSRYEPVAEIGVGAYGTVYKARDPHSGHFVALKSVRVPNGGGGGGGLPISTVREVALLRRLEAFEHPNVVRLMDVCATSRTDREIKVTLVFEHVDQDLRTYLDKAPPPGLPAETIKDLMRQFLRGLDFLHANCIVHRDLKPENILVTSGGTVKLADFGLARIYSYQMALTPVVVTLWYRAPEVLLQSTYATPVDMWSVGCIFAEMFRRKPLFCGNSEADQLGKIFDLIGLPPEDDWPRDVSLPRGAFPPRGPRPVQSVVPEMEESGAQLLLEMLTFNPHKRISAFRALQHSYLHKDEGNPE
Sequence of CDK4 CCND3 (human) (P30281 whole entry, looked up): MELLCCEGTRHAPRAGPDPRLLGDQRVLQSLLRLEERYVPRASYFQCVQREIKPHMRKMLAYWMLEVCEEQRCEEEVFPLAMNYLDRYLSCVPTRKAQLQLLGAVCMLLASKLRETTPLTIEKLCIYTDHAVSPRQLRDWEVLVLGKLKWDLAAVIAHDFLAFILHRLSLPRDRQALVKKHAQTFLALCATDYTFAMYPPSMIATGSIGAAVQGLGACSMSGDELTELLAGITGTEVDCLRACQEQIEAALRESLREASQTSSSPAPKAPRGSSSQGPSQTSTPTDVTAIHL

MYLK2 (human) = MYLK2 (human) (UniProt Q9H1R3)
Sequence of MYLK2 (human) (Q9H1R3 whole entry, looked up): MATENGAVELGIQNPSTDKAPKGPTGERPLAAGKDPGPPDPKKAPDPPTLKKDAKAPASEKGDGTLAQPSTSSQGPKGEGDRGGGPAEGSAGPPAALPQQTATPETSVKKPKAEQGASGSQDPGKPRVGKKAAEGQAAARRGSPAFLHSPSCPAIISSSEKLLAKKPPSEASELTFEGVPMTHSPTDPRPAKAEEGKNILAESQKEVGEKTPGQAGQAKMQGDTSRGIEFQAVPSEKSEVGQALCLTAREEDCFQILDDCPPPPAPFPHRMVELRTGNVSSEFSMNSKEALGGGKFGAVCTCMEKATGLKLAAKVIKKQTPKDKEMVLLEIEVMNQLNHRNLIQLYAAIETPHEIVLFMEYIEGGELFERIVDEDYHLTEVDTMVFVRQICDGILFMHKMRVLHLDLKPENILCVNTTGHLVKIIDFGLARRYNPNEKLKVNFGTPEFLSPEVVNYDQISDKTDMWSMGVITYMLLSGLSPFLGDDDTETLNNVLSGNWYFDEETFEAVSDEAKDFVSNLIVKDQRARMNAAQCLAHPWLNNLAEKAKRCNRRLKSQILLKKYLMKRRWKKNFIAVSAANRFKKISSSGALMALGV

RPS6KB2 (human) = RPS6KB2 (human) (UniProt Q9UBS0)
MELK (human) = MELK (human) (UniProt Q14680)
SRC (human) = SRC (human) (UniProt P12931)
FYN (human) = FYN (human) (UniProt P06241)
Sequence of FYN (human) (P06241 whole entry, looked up): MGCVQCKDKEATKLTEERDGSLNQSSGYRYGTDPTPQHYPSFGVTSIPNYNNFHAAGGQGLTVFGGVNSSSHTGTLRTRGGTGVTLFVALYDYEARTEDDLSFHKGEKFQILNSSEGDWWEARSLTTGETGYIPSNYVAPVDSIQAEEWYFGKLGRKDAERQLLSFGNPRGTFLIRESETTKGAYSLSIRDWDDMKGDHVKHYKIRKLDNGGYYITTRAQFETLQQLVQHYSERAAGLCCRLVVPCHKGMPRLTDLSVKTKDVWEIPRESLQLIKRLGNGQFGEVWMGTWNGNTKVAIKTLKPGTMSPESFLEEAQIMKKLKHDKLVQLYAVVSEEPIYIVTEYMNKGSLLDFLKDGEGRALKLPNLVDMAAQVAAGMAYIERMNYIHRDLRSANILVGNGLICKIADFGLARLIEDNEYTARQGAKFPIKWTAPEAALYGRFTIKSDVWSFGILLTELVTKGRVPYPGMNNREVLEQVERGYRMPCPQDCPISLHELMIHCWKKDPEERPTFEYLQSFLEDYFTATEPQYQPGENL

RPS6KA4 KD2 (human) = RPS6KA4 KD2 (human) (UniProt O75676)
AURKB (human) = AURKB (human) (UniProt Q96GD4)
FGFR4 (human) = FGFR4 (human) (UniProt P22455)
MERTK (human) = MERTK (human) (UniProt Q12866)
PKN1 (human) = PKN1 (human) (UniProt Q16512)
HIPK4 (human) = HIPK4 (human) (UniProt Q8NE63)
STK11 (human) = STK11 (human) (UniProt Q15831)
MAP3K10 (human) = MAP3K10 (human) (UniProt Q02779)
[3] = test system: PRKCQ (human), Q04759 [P330L]
FLT3 (human) = FLT3 (human) (UniProt P36888)
GRK5 (human) = GRK5 (human) (UniProt P34947)
Sequence of GRK5 (human) (P34947 whole entry, looked up): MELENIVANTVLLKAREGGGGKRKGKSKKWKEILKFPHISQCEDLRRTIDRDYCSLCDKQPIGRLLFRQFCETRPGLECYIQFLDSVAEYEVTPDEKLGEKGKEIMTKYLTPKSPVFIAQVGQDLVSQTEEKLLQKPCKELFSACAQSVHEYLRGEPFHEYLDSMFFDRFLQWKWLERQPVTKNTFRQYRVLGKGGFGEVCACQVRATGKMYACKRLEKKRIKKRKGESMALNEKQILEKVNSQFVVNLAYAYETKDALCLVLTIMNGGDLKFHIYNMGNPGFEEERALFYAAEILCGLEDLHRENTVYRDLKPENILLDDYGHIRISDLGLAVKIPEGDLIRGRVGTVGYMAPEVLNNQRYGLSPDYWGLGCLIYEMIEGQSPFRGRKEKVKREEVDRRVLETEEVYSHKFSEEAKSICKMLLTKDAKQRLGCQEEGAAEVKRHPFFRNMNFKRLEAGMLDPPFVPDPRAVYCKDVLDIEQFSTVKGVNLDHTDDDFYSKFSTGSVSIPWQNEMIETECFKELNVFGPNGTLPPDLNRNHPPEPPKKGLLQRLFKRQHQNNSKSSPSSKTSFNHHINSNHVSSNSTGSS

EPHB1 (human) = EPHB1 (human) (UniProt P54762)

Sequence of CSNK1E (human) (P49674 whole entry, looked up): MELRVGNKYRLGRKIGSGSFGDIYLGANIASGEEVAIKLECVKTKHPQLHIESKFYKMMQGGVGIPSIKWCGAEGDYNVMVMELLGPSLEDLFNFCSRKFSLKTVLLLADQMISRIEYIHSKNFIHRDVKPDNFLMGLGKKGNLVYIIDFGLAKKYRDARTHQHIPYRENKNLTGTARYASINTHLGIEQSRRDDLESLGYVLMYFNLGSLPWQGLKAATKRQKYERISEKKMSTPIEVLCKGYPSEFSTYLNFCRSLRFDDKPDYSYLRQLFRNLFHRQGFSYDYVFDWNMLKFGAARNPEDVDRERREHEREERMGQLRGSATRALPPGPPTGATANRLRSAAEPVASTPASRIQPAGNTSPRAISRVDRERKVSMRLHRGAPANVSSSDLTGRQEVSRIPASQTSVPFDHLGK

O=C1NC(=O)c2c1c1c3ccccc3[nH]c1n1cncc21
residual activity (PHKG1 (human)): 70.8% | residual activity (ROCK2 (human)): 93.2% | residual activity (CSNK1E (human)): 18.9% | residual activity [1]: 85.4% | residual activity (DCLK2 (human)): 82.3% | residual activity (INSRR (human)): 20.7% | residual activity (PIM1 (human)): 1.43% | residual activity (DAPK1 (human)): 26.6% | residual activity (ERBB4 (human)): 102% | residual activity (CLK2 (human)): 94.7% | residual activity (KDR (human)): 66.6% | residual activity (CDK7 CCNH MNAT1 (human)): 92.3% | residual activity (DYRK4 (human)): 107% | residual activity (CSNK1G3 (human)): 87% | residual activity (TEC (human)): 96.7% | residual activity (MAPK9 (human)): 65.3% | residual activity (WNK2 (human)): 86.6% | residual activity (INSR (human)): 17.9% | residual activity (RIPK2 (human)): 67.5% | residual activity (BLK (human)): 73.9% | residual activity (MAP3K9 (human)): 72.5% | residual activity [2]: 56.3% | residual activity (AKT1 (human)): 102% | residual activity (TSSK2 (human)): 99.1% | residual activity (CDK4 CCND3 (human)): 87.1% | residual activity (MYLK2 (human)): 33.7% | residual activity (RPS6KB2 (human)): 74.7% | residual activity (MELK (human)): 32.6% | residual activity (SRC (human)): 88.4% | residual activity (FYN (human)): 97.7% | residual activity (RPS6KA4 KD2 (human)): 61.3% | residual activity (AURKB (human)): 25.2% | residual activity (FGFR4 (human)): 78.6% | residual activity (MERTK (human)): 53.9% | residual activity (PKN1 (human)): 76.4% | residual activity (HIPK4 (human)): 98.5% | residual activity (STK11 (human)): 45.2% | residual activity (MAP3K10 (human)): 82.5% | residual activity [3]: 88.9% | residual activity (FLT3 (human)): 9.86% | residual activity (GRK5 (human)): 94.4% | residual activity (EPHB1 (human)): 94%

CN(C)c1ccc(/C=C2\C(=O)Nc3ccccc32)cc1
residual activity (PHKG1 (human)): 99.1% | residual activity (ROCK2 (human)): 95.2% | residual activity (CSNK1E (human)): 57.2% | residual activity [1]: 103% | residual activity (DCLK2 (human)): 100% | residual activity (INSRR (human)): 94.5% | residual activity (PIM1 (human)): 101% | residual activity (DAPK1 (human)): 92.2% | residual activity (ERBB4 (human)): 97.7% | residual activity (CLK2 (human)): 99.7% | residual activity (KDR (human)): 94.3% | residual activity (CDK7 CCNH MNAT1 (human)): 99.4% | residual activity (DYRK4 (human)): 94.8% | residual activity (CSNK1G3 (human)): 101% | residual activity (TEC (human)): 103% | residual activity (MAPK9 (human)): 103% | residual activity (WNK2 (human)): 104% | residual activity (INSR (human)): 93.4% | residual activity (RIPK2 (human)): 87.8% | residual activity (BLK (human)): 99.2% | residual activity (MAP3K9 (human)): 90.2% | residual activity [2]: 97.3% | residual activity (AKT1 (human)): 101% | residual activity (TSSK2 (human)): 101% | residual activity (CDK4 CCND3 (human)): 98.9% | residual activity (MYLK2 (human)): 82.6% | residual activity (RPS6KB2 (human)): 101% | residual activity (MELK (human)): 89.3% | residual activity (SRC (human)): 102% | residual activity (FYN (human)): 104% | residual activity (RPS6KA4 KD2 (human)): 95.2% | residual activity (AURKB (human)): 61.4% | residual activity (FGFR4 (human)): 97.4% | residual activity (MERTK (human)): 92.7% | residual activity (PKN1 (human)): 98.4% | residual activity (HIPK4 (human)): 98.3% | residual activity (STK11 (human)): 99.4% | residual activity (MAP3K10 (human)): 96.6% | residual activity [3]: 104% | residual activity (FLT3 (human)): 15.3% | residual activity (GRK5 (human)): 104% | residual activity (EPHB1 (human)): 102%

CCCCc1c(-c2ccc(OC)cc2)[nH]c2nccnc12
residual activity (PHKG1 (human)): 89.4% | residual activity (ROCK2 (human)): 97.2% | residual activity (CSNK1E (human)): 109% | residual activity [1]: 38.8% | residual activity (DCLK2 (human)): 101% | residual activity (INSRR (human)): 83.2% | residual activity (PIM1 (human)): 97% | residual activity (DAPK1 (human)): 90.6% | residual activity (ERBB4 (human)): 109% | residual activity (CLK2 (human)): 85.3% | residual activity (KDR (human)): 88.8% | residual activity (CDK7 CCNH MNAT1 (human)): 92.6% | residual activity (DYRK4 (human)): 97.7% | residual activity (CSNK1G3 (human)): 89.2% | residual activity (TEC (human)): 134% | residual activity (MAPK9 (human)): 84.8% | residual activity (WNK2 (human)): 112% | residual activity (INSR (human)): 97.6% | residual activity (RIPK2 (human)): 71% | residual activity (BLK (human)): 96.7% | residual activity (MAP3K9 (human)): 39.8% | residual activity [2]: 97.7% | residual activity (AKT1 (human)): 113% | residual activity (TSSK2 (human)): 93.7% | residual activity (CDK4 CCND3 (human)): 69.7% | residual activity (MYLK2 (human)): 102% | residual activity (RPS6KB2 (human)): 99.7% | residual activity (MELK (human)): 84.4% | residual activity (SRC (human)): 58.8% | residual activity (FYN (human)): 61.3% | residual activity (RPS6KA4 KD2 (human)): 89.4% | residual activity (AURKB (human)): 64.5% | residual activity (FGFR4 (human)): 92.5% | residual activity (MERTK (human)): 92.6% | residual activity (PKN1 (human)): 89.1% | residual activity (HIPK4 (human)): 119% | residual activity (STK11 (human)): 74.5% | residual activity (MAP3K10 (human)): 82.7% | residual activity [3]: 107% | residual activity (FLT3 (human)): 47.8% | residual activity (GRK5 (human)): 105% | residual activity (EPHB1 (human)): 76%

Source: the kinase profiling compilation of Christmann-Franck et al. (2016)
